How the values were obtained:
[1] = system: c-myc protein; assay: Immunodetection of protein c-myc in HGC-27 cell lysates (Western blot); type: cell-based, human; settings: 50 μmol · l^−1, 24 hour incubation, normalized to β-actin
Experimental: Determination of changes in c-myc protein expression (transcription factor) in cell lysates prepared from tumor cell line HGC-27 after treatment with test helquats (Tab. 7) was carried out by immunodetection after separation of proteins according to their size by gel electrophoresis (SDS-PAGE) and blotting.
To determine the influence helquats on expression of c-myc protein, the cells were cultured under standard conditions and in the exponential growth phase were seeded into flasks at a density of 25,000 cells/cm^2. The next day selected helquats were added at a concentration of 50 μmol·l^−1. After 24 hour incubation, the cell pellets were obtained and, after addition of RIPA buffer with protease inhibitors (PrIC) and phosphatases (PhIC) (for composition see Tab. 8) cell lysates were prepared. 150 μl of RIPA buffer was used for 10^7 cells. Protein concentrations in the lysates were measured by BCA method. Separation of proteins in the lysates was carried out on a 12% denaturing polyacrylamide gel. The separated proteins were transferred to PVDF membrane by Western blotting.
Incubation with primary mouse monoclonal antibody against the protein c-myc (dilution 1:1000 in “SignalBoost” reagent) was carried out overnight at 4° C., and then with the primary mouse anti-β-actin (1:5000 dilution in 5% milk in TBS-T buffer) at room temperature for 2 hours. Subsequently, the secondary horse monoclonal antibody conjugated to horseradish peroxidase (diluted 1:2000 in 5% milk in TBS-T buffer) binding to mouse IgG antibody was applied. C-myc proteins and β-actin bound to the membrane were visualized using detection kit (SuperSignal® West Femto Maximum Sensitivity Substrate, Cat. No. 34095, Thermo Fisher Scientific, Inc., USA) in the chemiluminescence detection system ImageQuant LAS 4000 Mini (Cat. No. 28-9558-13, GE Healthcare Life Sciences, USA). The amount of protein was quantified by densitometry in Quantity One software. The amount of c-myc in the samples was normalized to β-actin, and subsequently related to a control sample.

[2] = system: G-quadruplex in promoter region of the c-myc gene (NHE III1 segment); assay: Dual luciferase analysis with plasmid pGL4.10-myc (luc2) in HGC-27 cells; type: cell-based, human; settings: Homo sapiens; for inhibition at 50 µM: HGC-27, text summary of tab. 5 (50 μmol·l^−1), read-out: inhibition of expression of firefly luciferase as compared to control; for activity at 50 µM: helquat 50 μmol · l^−1, HGC-27, firefly normalized to Renilla, 24 hours after transfection, read-out: luciferase expression relative to control (control = 100%)
Method in brief: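 HGC-27 cells were co-transfected 1:1 with pGL4.10-myc (luc2), whose firefly luciferase is driven by an 860 bp c-myc regulatory region containing the G-quadruplex-forming NHE III1 segment, and pRL-TK Renilla control, using X-tremeGENE HP DNA in OptiMEM. Compounds were added two hours post-transfection; luminescence read 24 hours after transfection was Renilla-normalized and expressed relative to control.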

Structure (SMILES)	c-myc protein expression relative to control (control = 100%) [1] [%]	inhibition at 50 µM [2] [%]	activity at 50 µM [2] [%]
Cc1c(C)c2c(c3c1CC[n+]1ccc4ccccc4c1-3)-c1cccc(/C=C/c3cccc4c3oc3ccccc34)[n+]1CC2.O=S(=O)([O-])C(F)(F)F.O=S(=O)([O-])C(F)(F)F [VDJA-C13-8, (E)-11-(2-(dibenzo[b,d]furan-4-yl)vinyl)-6,7-dimethyl-4,5,8,9-tetrahydroisoquinolino[1,2-a]pyrido[1,2-k][2,9]phenanthroline-3,10-diium trifluoromethanesulfonate]	77	> 20	76
Cc1c(C)c2c(c3c1CC[n+]1ccc(/C=C/c4ccsc4)cc1-3)-c1cccc(/C=C/c3ccsc3)[n+]1CC2 (racemic) [MJB-C5-9, (rac)-8,9-dimethyl-2,13-bis((E)-2-(thiophen-3-yl)vinyl)-6,7,10,11-tetrahydrodipyrido[2,1-a:1′,2′-k][2,9]phenanthroline-5,12-diium trifluoromethanesulfonate]	30	> 20	75
Cc1nc[nH]c1/C=C/c1cc[n+]2c(c1)-c1c(ccc3c1-c1cc(/C=C/c4[nH]cnc4C)cc[n+]1CC3)CC2.O=S(=O)([O-])C(F)(F)F.O=S(=O)([O-])C(F)(F)F [PDA-C5-11, 2,15-bis((E)-2-(4-methyl-1H-imidazol-5-yl)vinyl)-6,7,10,11-tetrahydrodipyrido[2,1-a:1′,2′-k][2,9]phenanthroline-5,12-diium trifluoromethanesulfonate]	80	–	–
Cc1c(C)c2c(c3c1CC[n+]1ccc(/C=C/c4cccc5c4oc4ccccc45)cc1-3)-c1cc(/C=C/c3cccc4c3oc3ccccc34)cc[n+]1CC2.O=S(=O)([O-])C(F)(F)F.O=S(=O)([O-])C(F)(F)F [PDB-C13-8, 2,15-bis((E)-2-(dibenzo [b,d]furan-4-yl)vinyl)-8,9-dimethyl-6,7,10,11-tetrahydrodipyrido[2,1-a:1′,2′-k][2,9]phenanthroline-5,12-diium trifluoromethanesulfonate]	83	–	–
C(=C\c1cc2ccccc2[nH]1)/c1cc(/C=C/c2cc3ccccc3[nH]2)[n+]2c(c1)-c1c(ccc3c1-c1cccc[n+]1CC3)CC2.O=S(=O)([O-])C(F)(F)F.O=S(=O)([O-])C(F)(F)F [HTA-C10-10, 2,4-bis((E)-2-(1H-indol-2-yl)vinyl)-6,7,10,11-tetrahydrodipyrido[2,1-a:1′,2′-k][2,9]phenanthroline-5,12-diium trifluoromethanesulfonate]	75	–	–
C(=C\c1cccc2c1oc1ccccc12)/c1cc[n+]2c(c1)-c1c(ccc3c1-c1cccc[n+]1CC3)CC2.O=S(=O)([O-])C(F)(F)F.O=S(=O)([O-])C(F)(F)F [LSA-C13-8, (E)-2-(2-(dibenzo[b,d]furan-4-yl)vinyl)-6,7,10,11-tetrahydrodipyrido[2,1-a:1′,2′-k][2,9]phenanthroline-5,12-diium trifluoromethanesulfonate]	15	> 40	58
C(=C\c1ccc(-c2cccs2)s1)/c1cc[n+]2c(c1)-c1c(ccc3c1-c1cccc[n+]1CC3)CC2.O=S(=O)([O-])C(F)(F)F.O=S(=O)([O-])C(F)(F)F [LSA-C9-16, (E)-2-(2-([2,2′-bithiophen]-5-yl)vinyl)-6,7,10,11-tetrahydrodipyrido[2,1-a:1′,2′-k][2,9]phenanthroline-5,12-diium trifluoromethanesulfonate]	28	–	–
Cc1nc[nH]c1/C=C/c1cc[n+]2c(c1)-c1c(c(C)c(C)c3c1-c1cccc(/C=C/c4[nH]cnc4C)[n+]1CC3)CC2.O=S(=O)([O-])C(F)(F)F.O=S(=O)([O-])C(F)(F)F [MJB-C5-11, 8,9-dimethyl-2,13-bis((E)-2-(4-methyl-1H-imidazol-5-yl)vinyl)-6,7,10,11-tetrahydrodipyrido[2,1-a:1′,2′-k][2,9]phenanthroline-5,12-diium trifluoromethanesulfonate]	23	–	–
CCOC(=O)c1cc(/C=C/c2cc[n+]3c(c2)-c2c(c(C)c(C)c4c2-c2c5ccccc5cc[n+]2CC4)CC3)c[nH]1.O=S(=O)([O-])C(F)(F)F.O=S(=O)([O-])C(F)(F)F [MJA-C8-28, (E)-13-(2-(5-(ethoxycarbonyl)-1H-pyrrol-3-yl)vinyl)-6,7-dimethyl-4,5,8,9-tetrahydroisoquinolino[1,2-a]pyrido[1,2-k][2,9]phenanthroline-3,10-diium trifluoromethanesulfonate]	23	> 20	72

— patent US9932339B2, “Helquats with heteroaromatic substituents, preparation thereof, and use thereof as G-quadruplex stabilizers” (USTAV ORGANICKE CHEMIE A BIOCHEMIE AV CR, V.V.I., priority 2014, dated 2018)
